From patent US5278184A, “Synthetic derivatives of pyrrole and pyrrolidine suitable for the therapy of infections caused by rhinoviruses” (Repla Chemical Ltd., priority 1991, dated 1994)
Read-outs that look alike come from different tables or passages of the source.

Columns and labels:
rhinoviruses = details: literature; interaction with proteins of the virus capsid; cited from earlier work
rhinovirus serotype 14 = test: Protection of HeLa cells from rhinovirus-induced cytopathogenicity (MTT), serotype 14; details: Enterovirus, 72 h, read-out: MIC, serotype 14
in vitro [1] = details: human, hela cells
[2] = tested on: Herpes Simplex Virus type 1 (HSV-1); test: Viral plaque reduction, HSV-1 on Vero cells; assay type: cell-based; details: Human alphaherpesvirus 1, Vero, read-out: MIC, HSV-1
rhinovirus serotype 89 = test: Protection of HeLa cells from rhinovirus-induced cytopathogenicity (MTT), serotype 89; details: Enterovirus, 72 h, read-out: MIC, serotype 89
rhinovirus serotype 22 = test: Protection of HeLa cells from rhinovirus-induced cytopathogenicity (MTT), serotype 22; details: Enterovirus, 72 h, read-out: MIC, serotype 22
Virus Vaccinicum (VV) = test: Viral plaque reduction, VV on Vero cells; assay type: cell-based; details: Table 1, 50% plaque reduction, 37° C, read-out: MIC, VV
rhinovirus serotype 2 = test: Protection of HeLa cells from rhinovirus-induced cytopathogenicity (MTT), serotype 2; details: Enterovirus, 72 h, read-out: MIC, serotype 2
rhinovirus serotype 86 = test: Protection of HeLa cells from rhinovirus-induced cytopathogenicity (MTT), serotype 86; details: Enterovirus, 72 h, read-out: MIC, serotype 86
[3] = tested on: different rhinoviruses serotypes; test: Protection of HeLa cells from rhinovirus-induced cytopathogenicity (MTT), all serotypes of Table 3; details: for EC50: Enterovirus, HeLa, 72 h, read-out: MIC, summary over the serotypes; for effectiveness and selectivity as rhinoviruses inhibiting agent / S.I.: Table 3; for S.I.: nine serotypes, HeLa cells
rhinovirus serotype 30 = test: Protection of HeLa cells from rhinovirus-induced cytopathogenicity (MTT), serotype 30; details: Enterovirus, 72 h, read-out: MIC, serotype 30
in vitro [4] = details: monkey, vero cells
[5] = tested on: Coxsackie Virus B1 (Coxs); test: Viral plaque reduction, Coxs on Vero cells; assay type: cell-based; details: Table 1, 50% plaque reduction, 37° C, read-out: MIC, Coxs
[6] = tested on: Poliomyelitis Virus type 1 (Sb-1); test: microbe, parasite or virus in culture; assay type: cell-based; details: Vero, read-out: MIC, Sb-1
HRV-14 [7] = test: Viral plaque reduction, HRV-14 on HeLa cells; assay type: cell-based, human rhinovirus; details: for EC50: Rhinovirus B, HeLa cells, read-out: MIC, HRV-14; for S.I. (Selectivity Index): MTL/MIC ratio / S.I. (Selectivity Index): ratio MTL/MIC: HeLa MTL / HRV-14 MIC; for activity and selectivity to HRV-14 compared with the two previously known compounds: Table 1
rhinovirus serotype 15 = test: Protection of HeLa cells from rhinovirus-induced cytopathogenicity (MTT), serotype 15; details: Enterovirus, 72 h, read-out: MIC, serotype 15
[8] = tested on: Vesicular Stomatitis Virus (VSV); test: microbe, parasite or virus in culture; assay type: cell-based; details: Vero, read-out: MIC, VSV
rhinovirus serotype 50 = test: Protection of HeLa cells from rhinovirus-induced cytopathogenicity (MTT), serotype 50; details: Enterovirus, 72 h, read-out: MIC, serotype 50
rhinovirus serotype 21 = test: Protection of HeLa cells from rhinovirus-induced cytopathogenicity (MTT), serotype 21; details: Enterovirus, 72 h, read-out: MIC, serotype 21
HRV-14 [9] = details: Table 1; literature value; read-out: MIC, HRV-14 (comparison compounds); cited from earlier work
[10] = HRV14, Table 1 and text, 50% plaque reduction, 33° C
[11] = Table 2, 50% reduction of HRV14 plaques

Compound	EC50 (rhinovirus serotype 14) [nM]	MNTC (in vitro [1]) [µM]	EC50 [2] [nM]	EC50 (rhinovirus serotype 89) [nM]	EC50 (rhinovirus serotype 22) [nM]	EC50 (Virus Vaccinicum (VV)) [nM]	EC50 (rhinovirus serotype 2) [nM]	EC50 (rhinovirus serotype 86) [nM]	EC50 [3] [nM]	S.I. [3]	EC50 (rhinovirus serotype 30) [nM]	MNTC (in vitro [4]) [µM]	EC50 [5] [nM]	EC50 [6] [nM]	EC50 (HRV-14 [7]; [10]) [nM]	S.I. (Selectivity Index): MTL/MIC ratio (HRV-14 [7]; Table 1 and text)	EC50 (rhinovirus serotype 15) [nM]	EC50 [8] [nM]	EC50 (rhinovirus serotype 50) [nM]	EC50 (rhinovirus serotype 21) [nM]	other results
4-ethoxy-2'-hydroxy-4', 6-dimethoxychalcone [RO 09-0410]																					inhibition of rhinoviruses (rhinoviruses): inhibit a wide range of rhinoviruses
CCOC(=O)c1ccc(OCCCCC(=O)c2ccc(Cl)s2)cc1 [Compound 360]	2700	> 545	> 190000	300	1400	> 190000	100	300	760	> 717	50	> 190	> 190000	80000	2000	> 272	1600	> 190000	400		effectiveness and selectivity as rhinoviruses inhibiting agent [3]: the most effective and selective; cytotoxicity levels (HeLa cells): low cytotoxicity levels
O=C(CCCCOc1ccc(C2=NCCO2)cc1)c1ccc(Cl)s1 [Compound 366]		> 410	> 275000			> 275000						> 275	> 275000	200000	50			> 275000			cytotoxicity levels (HeLa cells): low cytotoxicity levels
CCOC(=O)c1ccc(OCCCCC(=O)c2cc(C=O)n(C)c2)cc1 [Compound 393, 4-[5-[4-(ethoxycarbonyl)phenoxy]pentanoyl]-1-methyl-1H-pyrrole-, -2-carboxaldeide]	2000	50		200	1100		500	140	1400	36	1100						2200		800	2200	EC50 (HRV-14 [7]; [11]): 1400 nM; S.I. (Selectivity Index): ratio MTL/MIC (HRV-14 [7]; Table 2): 36
Cn1cc(C(=O)CCCCOc2ccc(C(=O)O)cc2)cc1C=O [Compound 394]		> 610	> 380000			> 380000						380	> 380000	> 380000	7000	> 87		> 380000			activity and selectivity to HRV-14 compared with the two previously known compounds (HRV-14 [7]): less effective, but even more selective to HRV-14
Cn1cc(C(=O)CCCCOc2ccc(C3=NCCO3)cc2)cc1C=O [Compound 395]		> 425	> 280000			> 280000						> 280	> 280000	> 280000	5000	> 85		> 280000			activity and selectivity to HRV-14 compared with the two previously known compounds (HRV-14 [7]): less effective, but even more selective to HRV-14
Cn1cccc1C(=O)CCCCOc1ccc(C2=NCCO2)cc1 [Compound 414]		> 610	> 300000			> 300000						> 300	> 300000	> 300000	800	> 762		> 300000			cytotoxicity levels (HeLa cells): low cytotoxicity levels
CCOC(=O)c1ccc(OCCCCC(=O)c2ccc(C)s2)cc1 [Compound 514]	1700	> 578		300	1400		500	140	630	> 917	140						900		400	100	effectiveness and selectivity as rhinoviruses inhibiting agent [3]: the most effective and selective; EC50 (HRV-14 [7]; [11]): 3400 nM; S.I. (Selectivity Index): ratio MTL/MIC (HRV-14 [7]; Table 2): > 170
Cc1ccc(C(=O)CCCCOc2ccc(C3=NCCO3)cc2)s1 [Compound 522]	300	> 291		300	11600		1100	140	2000	> 145	1400						300		1100	1700	EC50 (HRV-14 [7]; [11]): 2900 nM; S.I. (Selectivity Index): ratio MTL/MIC (HRV-14 [7]; Table 2): > 100
Cc1csc(C(=O)CCCCOc2ccc(C3=NCCO3)cc2)c1 [Compound 529, 2-[5-[4-(4,5-Dihydro-2-oxazolyl)phenoxy]pentanoyl]-4-methylthiophene]	1100	291		2900	11600		2900	900	4100	71	5800						200		4300	5800	EC50 (HRV-14 [7]; [11]): 6900 nM; S.I. (Selectivity Index): ratio MTL/MIC (HRV-14 [7]; Table 2): 42
CCCCCCCCCCCCCCOc1ccc(C(C)=O)o1 [RMI-15,731, 1-[5-(tetradecyloxy)-2-furanyl]ethanone]																					inhibition of rhinoviruses (rhinoviruses): inhibit a wide range of rhinoviruses
Cc1cc(CCCCCCCOc2ccc(C3=NCCO3)cc2)on1 [WIN 51711, 5-{7-[4-(4,5-dihydro-2-oxazolyl)phenoxy]heptyl}-3-methyl-isoxazole, reference compound]	600			900	3500		1700	60	1200	23	1700					45	300		2000	600	EC50 (HRV-14 [9]): 400 nM; S.I. (Selectivity Index): ratio MTL/MIC (HRV-14 [7]; Table 2): 45; inhibition of rhinoviruses (rhinoviruses): inhibit a wide range of rhinoviruses
